# Test results as given in patent publication US12606526B2, “Substituted salicylamide compounds and use thereof” (HELIOS HUAMING BIOPHARMA CO., LTD., priority 2021, dated 2026).
# Target: PAD4 (Homo sapiens, UniProt Q9UM07)
# Test: PAD4 Inhibition Assay (citrulline formation from BAEE)
# Format: biochemical
# Details: PAD4 75 nM, 60-minute preincubation at 37° C., substrate BAEE, 90 minutes
# Procedure: PAD4 was diluted to 75 nM in Assay Buffer (50 mM Tris-HCl, 2 mM CaCl2, 2 mM DTT, 1 mM PMSF in H2O) and added to wells with various concentrations of compound or DMSO vehicle in Eppendorf tubes (final volume was 100 μL). Following a 60-minute preincubation at 37° C., the reaction was initiated by the addition of 10 μL substrate (22 mM BAEE in H2O) at 37° C. The reaction was stopped after 90 minutes by the addition of 25 μL HClO4 (5 M), 125 μL Reagent A (10 g/L diacetyl monoxime and 15 g/L NaCl in H2O) and 250 μL Reagent B (10 mg/mL antipyrine and 1.5 mg/mL FeCl3 diluted in detection buffer containing 25% H2SO4, 25% H3PO4 and 50% H2O) in sequence. This assay was quenched in an ice-bath for 5 minutes after boiling for 30 minutes. The citrulline formation was measured in […] (λ=465 nm) on microplate reader and the IC50 was calculated by GraphPad Prism 5.
# PAD4, sequence (Q9UM07 whole entry): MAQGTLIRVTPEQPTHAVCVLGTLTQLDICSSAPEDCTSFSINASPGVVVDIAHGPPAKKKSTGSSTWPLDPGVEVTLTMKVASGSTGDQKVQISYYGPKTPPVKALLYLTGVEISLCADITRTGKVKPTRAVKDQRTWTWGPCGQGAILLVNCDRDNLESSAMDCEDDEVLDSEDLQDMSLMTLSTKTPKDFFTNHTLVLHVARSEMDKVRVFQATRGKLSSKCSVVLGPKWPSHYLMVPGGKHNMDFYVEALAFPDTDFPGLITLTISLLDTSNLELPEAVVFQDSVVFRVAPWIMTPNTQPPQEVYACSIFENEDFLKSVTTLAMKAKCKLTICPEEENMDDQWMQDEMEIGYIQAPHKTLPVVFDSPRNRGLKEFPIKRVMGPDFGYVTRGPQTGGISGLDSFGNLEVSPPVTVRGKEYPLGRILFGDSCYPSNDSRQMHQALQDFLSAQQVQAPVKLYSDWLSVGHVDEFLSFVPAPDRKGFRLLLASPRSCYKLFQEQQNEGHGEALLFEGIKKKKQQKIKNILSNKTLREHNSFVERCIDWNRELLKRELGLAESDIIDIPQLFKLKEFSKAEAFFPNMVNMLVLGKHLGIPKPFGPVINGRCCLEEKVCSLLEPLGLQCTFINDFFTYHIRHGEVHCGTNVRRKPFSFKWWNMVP
row,Compound,IC50
1,"COc1ccc(-c2ccccc2)cc1C(=O)N[C@@H](CCCNC(=N)CF)C(=O)NCc1cccc(Cl)c1 [EX-9, (S)-N-(1-((3-Chlorobenzyl)amino)-5-(2-fluoroacetimidamido)-1-oxopentan-2-yl)-4-methoxy-[1,1′-biphenyl]-3-carboxamide]",500 to 10000 nM
2,"COc1ccccc1C(=O)N[C@@H](CCCNC(=N)CF)C(=O)NCc1ccc(Cl)cc1 [EX-5, (S)-N-(1-((4-Chlorobenzyl)amino)-5-(2-fluoroacetimidamido)-1-oxopentan-2-yl)-2-methoxybenzamide]",500 to 10000 nM
3,"COc1ccc(-c2ccccc2)cc1C(=O)N[C@@H](CCCNC(=N)CF)C(=O)NCc1cccc(C)c1 [EX-8, (S)-N-(5-(2-Fluoroacetimidamido)-1-((3-methylbenzyl)amino)-1-oxopentan-2-yl)-4-methoxy-[1,1′-biphenyl]-3-carboxamide]",500 to 10000 nM
4,"COc1cccc(Cl)c1C(=O)N[C@@H](CCCNC(=N)CF)C(=O)NCc1ccc(Cl)cc1 [EX-4, (S)-2-Chloro-N-(1-((4-chlorobenzyl)amino)-5-(2-fluoroacetimidamido)-1-oxopentan-2-yl)-6-methoxybenzamide]",500 to 10000 nM
5,"COc1cc2c(OC)cccc2cc1C(=O)N[C@@H](CCCNC(=N)CF)C(=O)NCc1cccc(F)c1 [EX-21, (S)-N-(5-(2-Fluoroacetimidamido)-1-((3-fluorobenzyl)amino)-1-oxopentan-2-yl)-3,5-dimethoxy-2-naphthamide]",< 500 nM
6,"COc1ccc(CNC(=O)[C@H](CCCNC(=N)CF)NC(=O)c2cc(Cl)ccc2OC)cc1 [EX-17, (S)-5-Chloro-N-(5-(2-fluoroacetimidamido)-1-((4-methoxybenzyl)amino)-1-oxopentan-2-yl)-2-methoxybenzamide]",< 500 nM
7,"COc1ccccc1CNC(=O)[C@H](CCCNC(=N)CF)NC(=O)c1cc(-c2ccccc2)ccc1OC [EX-13, (S)-N-(5-(2-Fluoroacetimidamido)-1-((2-methoxybenzyl)amino)-1-oxopentan-2-yl)-4-methoxy-[1,1′-biphenyl]-3-carboxamide]",< 500 nM
8,"COc1ccc(-c2cccc(Cl)c2)cc1C(=O)N[C@@H](CCCNC(=N)CF)C(=O)NCc1ccccc1 [EX-11, (S)-N-(1-(Benzylamino)-5-(2-fluoroacetimidamido)-1-oxopentan-2-yl)-3′-chloro-4-methoxy-[1,1′-biphenyl]-3-carboxamide]",500 to 10000 nM
9,"COc1cc2c(OC)cccc2cc1C(=O)N[C@@H](CCCNC(=N)CF)C(=O)NCc1ccc(Cl)cc1 [EX-19, (S)-N-(1-((4-Chlorobenzyl)amino)-5-(2-fluoroacetimidamido)-1-oxopentan-2-yl)-3,5-dimethoxy-2-naphthamide]",< 500 nM
10,COc1cc2c(OC)cccc2cc1C(=O)N[C@@H](CCCNC(=N)CF)C(=O)NCc1cccc(NC(=O)CCCNC(=O)CCCC[C@@H]2SC[C@@H]3NC(=O)N[C@@H]32)c1 [EX-24],< 500 nM
11,"COc1cc2c(OC)cccc2cc1C(=O)N[C@@H](CCCNC(=N)CF)C(=O)NCc1ccccc1 [EX-1, (S)-N-(1-(benzylamino)-5-(2-fluoroacetimidamido)-1-oxopentan-2-yl)-3,5-dimethoxy-2-naphthamide]",< 500 nM

# The next lines start with the values.
row,IC50,Compound
1,< 500 nM,"COc1ccc(Cl)cc1C(=O)N[C@@H](CCCNC(=N)CF)C(=O)NCc1ccccn1 [EX-18, (S)-5-Chloro-N-(5-(2-fluoroacetimidamido)-1-oxo-1-((pyridin-2-ylmethyl)amino)pentan-2-yl)-2-methoxybenzamide]"
2,< 500 nM,"COc1c(C(=O)N[C@@H](CCCNC(=N)CF)C(=O)NCc2ccccc2)ccc2cc(N(C)C)ccc12 [EX-23, (S)-N-(1-(Benzylamino)-5-(2-fluoroacetimidamido)-1-oxopentan-2-yl)-6-(dimethylamino)-1-methoxy-2-naphthamide]"
3,< 500 nM,"COc1ccc(-c2ccccc2)cc1C(=O)N[C@@H](CCCNC(=N)CF)C(=O)NCc1ccccc1 [EX-7, (S)-N-(1-(Benzylamino)-5-(2-fluoroacetimidamido)-1-oxopentan-2-yl)-4-methoxy-[1,1′-biphenyl]-3-carboxamide]"
4,< 500 nM,"COc1ccc(Cl)cc1C(=O)N[C@@H](CCCNC(=N)CF)C(=O)NCc1ccccc1Cl [EX-15, (S)-5-Chloro-N-(1-((2-chlorobenzyl)amino)-5-(2-fluoroacetimidamido)-1-oxopentan-2-yl)-2-methoxybenzamide]"
5,< 500 nM,"COc1ccc(Cl)cc1C(=O)N[C@@H](CCCNC(=N)CF)C(=O)NCc1ccc(Cl)cc1 [EX-6, (S)-5-Chloro-N-(1-((4-chlorobenzyl)amino)-5-(2-fluoroacetimidamido)-1-oxopentan-2-yl)-2-methoxybenzamide]"
6,< 500 nM,"COc1cc2c(OC)cccc2cc1C(=O)N[C@@H](CCCNC(=N)CF)C(=O)NCc1ccc(F)cc1 [EX-22, (S)-N-(5-(2-Fluoroacetimidamido)-1-((4-fluorobenzyl)amino)-1-oxopentan-2-yl)-3,5-dimethoxy-2-naphthamide]"
7,< 500 nM,"COc1cccc(OC)c1C(=O)N[C@@H](CCCNC(=N)CF)C(=O)NCc1ccc(Cl)cc1 [EX-3, (S)-N-(1-((4-Chlorobenzyl)amino)-5-(2-fluoroacetimidamido)-1-oxopentan-2-yl)-2,6-dimethoxybenzamide]"
8,< 500 nM,"COc1ccc(Cl)cc1C(=O)N[C@@H](CCCNC(=N)CF)C(=O)NCc1cccc(Cl)c1 [EX-14, (S)-5-Chloro-N-(1-((3-chlorobenzyl)amino)-5-(2-fluoroacetimidamido)-1-oxopentan-2-yl)-2-methoxybenzamide]"
9,< 500 nM,"COc1cc2c(OC)cccc2cc1C(=O)N[C@@H](CCCNC(=N)CF)C(=O)NCc1cccc(Cl)c1 [EX-20, (S)-N-(1-((3-Chlorobenzyl)amino)-5-(2-fluoroacetimidamido)-1-oxopentan-2-yl)-3,5-dimethoxy-2-naphthamide]"
10,< 500 nM,"COc1cc2ccccc2cc1C(=O)N[C@@H](CCCNC(=N)CF)C(=O)NCc1ccccc1 [EX-2, (S)-N-(1-(Benzylamino)-5-(2-fluoroacetimidamido)-1-oxopentan-2-yl)-3-methoxy-2-naphthamide]"
11,< 500 nM,"COc1ccc(-c2cccc(C)c2)cc1C(=O)N[C@@H](CCCNC(=N)CF)C(=O)NCc1ccccc1 [EX-12, (S)-N-(1-(Benzylamino)-5-(2-fluoroacetimidamido)-1-oxopentan-2-yl)-4-methoxy-3′-methyl-[1,1′-biphenyl]-3-carboxamide]"
12,< 500 nM,"COc1ccc(Cl)cc1C(=O)N[C@@H](CCCNC(=N)CF)C(=O)NCc1ccc(C)cc1 [EX-16, (S)-5-Chloro-N-(5-(2-fluoroacetimidamido)-1-((4-methylbenzyl)amino)-1-oxopentan-2-yl)-2-methoxybenzamide]"
13,< 500 nM,"COc1ccc(-c2ccccc2)cc1C(=O)N[C@@H](CCCNC(=N)CF)C(=O)NCc1ccccn1 [EX-10, (S)-N-(5-(2-Fluoroacetimidamido)-1-oxo-1-((pyridin-2-ylmethyl)amino)pentan-2-yl)-4-methoxy-[1,1′-biphenyl]-3-carboxamide]"
